Values quoted from earlier work, collected in patent US9782416B2, “Pharmaceutical formulations of potassium ATP channel openers and uses thereof” (Essentialis, Inc., priority 2004, dated 2017).

Legend:
Kir6.2/SUR1 channel = Kir6.2/SUR1 channel (Rattus norvegicus, UniProt Q09429); conditions: Dabrowski et al. 2002
KATP channel = molecular target: T1, KATP channel (Homo sapiens, UniProt Q09428); conditions: patients with hyperinsulinism and patients with pancreatic insulinoma
T1 construct: host or cells: patients with hyperinsulinism or pancreatic insulinoma (endogenous channel)
T1 sequence (Q09428 whole entry): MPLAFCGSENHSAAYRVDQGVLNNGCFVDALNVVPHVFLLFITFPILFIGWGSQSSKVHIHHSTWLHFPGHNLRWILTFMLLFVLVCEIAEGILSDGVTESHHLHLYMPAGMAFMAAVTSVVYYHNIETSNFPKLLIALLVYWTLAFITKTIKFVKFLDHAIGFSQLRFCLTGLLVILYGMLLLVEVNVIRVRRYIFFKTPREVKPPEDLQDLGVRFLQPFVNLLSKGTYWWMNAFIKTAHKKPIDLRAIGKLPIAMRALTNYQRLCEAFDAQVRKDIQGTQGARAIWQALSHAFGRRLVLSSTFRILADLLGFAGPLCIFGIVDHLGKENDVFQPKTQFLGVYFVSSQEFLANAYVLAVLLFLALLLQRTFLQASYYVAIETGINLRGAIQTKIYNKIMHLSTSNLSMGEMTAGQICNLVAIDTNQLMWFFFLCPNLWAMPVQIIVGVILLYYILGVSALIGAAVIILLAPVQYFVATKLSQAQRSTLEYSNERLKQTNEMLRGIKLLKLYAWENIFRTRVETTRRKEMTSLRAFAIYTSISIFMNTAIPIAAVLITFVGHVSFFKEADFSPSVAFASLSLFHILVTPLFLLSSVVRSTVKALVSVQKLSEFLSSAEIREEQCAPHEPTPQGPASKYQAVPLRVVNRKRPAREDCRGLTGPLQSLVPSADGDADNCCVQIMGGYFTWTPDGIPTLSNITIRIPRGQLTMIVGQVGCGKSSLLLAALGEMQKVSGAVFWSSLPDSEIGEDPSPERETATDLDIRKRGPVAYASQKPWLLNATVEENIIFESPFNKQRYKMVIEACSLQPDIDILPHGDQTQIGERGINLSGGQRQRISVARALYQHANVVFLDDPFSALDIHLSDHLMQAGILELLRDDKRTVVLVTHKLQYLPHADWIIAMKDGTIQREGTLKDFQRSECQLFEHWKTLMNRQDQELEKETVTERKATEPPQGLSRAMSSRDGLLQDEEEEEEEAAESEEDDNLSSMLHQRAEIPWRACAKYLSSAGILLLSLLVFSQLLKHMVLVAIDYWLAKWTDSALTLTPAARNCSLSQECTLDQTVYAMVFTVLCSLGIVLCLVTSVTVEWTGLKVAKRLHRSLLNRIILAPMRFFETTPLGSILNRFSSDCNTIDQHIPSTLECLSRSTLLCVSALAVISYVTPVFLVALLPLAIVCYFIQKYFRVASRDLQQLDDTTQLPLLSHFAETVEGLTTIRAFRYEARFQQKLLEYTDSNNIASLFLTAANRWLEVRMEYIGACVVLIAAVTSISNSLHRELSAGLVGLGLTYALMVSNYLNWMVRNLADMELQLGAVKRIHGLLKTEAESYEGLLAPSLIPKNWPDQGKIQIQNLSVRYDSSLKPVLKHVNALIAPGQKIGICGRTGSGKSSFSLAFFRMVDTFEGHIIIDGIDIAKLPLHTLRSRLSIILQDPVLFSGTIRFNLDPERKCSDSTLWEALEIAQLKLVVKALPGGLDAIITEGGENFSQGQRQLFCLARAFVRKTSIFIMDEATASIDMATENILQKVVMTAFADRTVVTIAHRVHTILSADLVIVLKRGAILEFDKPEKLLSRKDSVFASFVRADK
T1 sequence (Q14654 whole entry partner): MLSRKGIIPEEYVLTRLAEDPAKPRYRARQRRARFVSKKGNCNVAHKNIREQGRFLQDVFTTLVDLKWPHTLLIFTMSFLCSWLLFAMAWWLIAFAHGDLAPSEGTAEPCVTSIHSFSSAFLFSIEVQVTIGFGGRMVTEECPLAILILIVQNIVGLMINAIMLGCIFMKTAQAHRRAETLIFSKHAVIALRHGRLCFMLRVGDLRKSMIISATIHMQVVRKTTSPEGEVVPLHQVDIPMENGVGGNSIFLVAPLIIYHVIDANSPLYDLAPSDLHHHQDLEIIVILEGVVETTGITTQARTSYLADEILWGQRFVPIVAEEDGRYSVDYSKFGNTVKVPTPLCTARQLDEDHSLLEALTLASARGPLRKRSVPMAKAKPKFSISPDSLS

Chain of Kir6.2/SUR1 channel (Q09429 whole entry): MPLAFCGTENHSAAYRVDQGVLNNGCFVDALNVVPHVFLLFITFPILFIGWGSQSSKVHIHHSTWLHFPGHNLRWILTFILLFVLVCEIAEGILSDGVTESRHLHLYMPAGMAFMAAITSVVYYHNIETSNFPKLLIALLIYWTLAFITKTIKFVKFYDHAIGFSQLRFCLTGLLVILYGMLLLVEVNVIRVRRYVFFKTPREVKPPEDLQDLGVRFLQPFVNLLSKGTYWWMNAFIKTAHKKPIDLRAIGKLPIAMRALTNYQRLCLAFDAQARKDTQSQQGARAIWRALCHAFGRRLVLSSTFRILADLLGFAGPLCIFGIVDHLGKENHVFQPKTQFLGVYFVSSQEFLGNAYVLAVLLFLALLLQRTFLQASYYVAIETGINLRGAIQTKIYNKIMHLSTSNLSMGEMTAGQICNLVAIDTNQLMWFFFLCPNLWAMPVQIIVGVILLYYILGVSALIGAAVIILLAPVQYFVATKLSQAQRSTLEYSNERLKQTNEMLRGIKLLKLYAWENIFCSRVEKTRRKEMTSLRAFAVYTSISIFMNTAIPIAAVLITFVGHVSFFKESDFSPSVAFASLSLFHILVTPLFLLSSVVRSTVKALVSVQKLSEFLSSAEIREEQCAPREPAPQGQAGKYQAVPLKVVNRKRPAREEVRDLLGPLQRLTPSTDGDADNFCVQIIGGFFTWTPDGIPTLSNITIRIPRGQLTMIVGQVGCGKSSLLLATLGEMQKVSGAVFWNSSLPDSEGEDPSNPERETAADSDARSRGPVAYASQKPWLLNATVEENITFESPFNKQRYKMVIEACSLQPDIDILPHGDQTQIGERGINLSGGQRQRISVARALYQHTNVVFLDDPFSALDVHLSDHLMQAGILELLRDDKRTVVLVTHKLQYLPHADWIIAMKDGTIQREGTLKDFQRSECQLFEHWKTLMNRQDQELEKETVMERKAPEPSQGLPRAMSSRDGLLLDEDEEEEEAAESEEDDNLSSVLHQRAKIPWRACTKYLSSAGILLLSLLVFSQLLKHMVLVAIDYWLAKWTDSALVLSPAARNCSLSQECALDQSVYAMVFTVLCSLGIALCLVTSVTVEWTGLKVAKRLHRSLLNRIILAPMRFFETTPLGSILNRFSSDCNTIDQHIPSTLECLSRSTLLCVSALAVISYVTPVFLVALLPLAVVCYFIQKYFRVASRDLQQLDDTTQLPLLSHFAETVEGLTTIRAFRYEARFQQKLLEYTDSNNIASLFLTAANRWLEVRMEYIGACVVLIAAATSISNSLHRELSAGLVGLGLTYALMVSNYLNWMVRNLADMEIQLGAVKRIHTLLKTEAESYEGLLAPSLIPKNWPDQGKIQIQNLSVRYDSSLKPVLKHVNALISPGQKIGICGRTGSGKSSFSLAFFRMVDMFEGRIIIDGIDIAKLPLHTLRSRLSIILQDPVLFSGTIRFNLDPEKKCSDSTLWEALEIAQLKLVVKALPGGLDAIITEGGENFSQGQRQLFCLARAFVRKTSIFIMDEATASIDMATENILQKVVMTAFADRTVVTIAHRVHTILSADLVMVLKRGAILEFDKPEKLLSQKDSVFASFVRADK
Chain of Kir6.2/SUR1 channel (Q61743 whole entry partner): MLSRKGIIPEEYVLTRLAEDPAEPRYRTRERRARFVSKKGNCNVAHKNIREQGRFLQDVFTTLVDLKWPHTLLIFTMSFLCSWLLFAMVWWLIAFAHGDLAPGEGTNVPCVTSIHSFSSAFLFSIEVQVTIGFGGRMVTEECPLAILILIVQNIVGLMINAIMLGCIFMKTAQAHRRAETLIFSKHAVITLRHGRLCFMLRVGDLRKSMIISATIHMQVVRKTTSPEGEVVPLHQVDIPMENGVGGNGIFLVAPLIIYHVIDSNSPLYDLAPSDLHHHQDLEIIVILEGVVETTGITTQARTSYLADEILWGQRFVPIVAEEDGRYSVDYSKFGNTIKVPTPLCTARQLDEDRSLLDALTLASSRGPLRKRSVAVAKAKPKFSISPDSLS

## COc1ccc2c(c1)S(=O)(=O)N=C(NC(C)C)N2 [3-isopropylamino-7-methoxy-4H-1,2,4,-benzothiadiazine 1,1-dioxide]
Kir6.2/SUR1 channel
  channel opener selectivity: selective Kir6.2/SUR1 channel opener

## CC(C)N=C1Nc2cc(Cl)c(Cl)cc2S(=O)(=O)N1 [BPDZ 154]
KATP channel
  KATP channel activator activity: effective KATP channel activator
